In patent US20220307066A1, “AN ENZYMATIC ASSAY TO MEASURE LONG-TERM ADHERENCE TO PRE EXPOSURE PROPHYLAXIS AND ANTIRETROVIRAL THERAPY” (University of Washington, priority 2019, published 2022):
“And” between values parts separate entries of the source, which are not always exact repeats. Equal values may be shown once. Read-outs that look alike come from different tables or passages of the source.

Experiments:
[1] = cited from earlier work
HIV-1 RT [2] = biological target: T1, HIV-1 RT (Human immunodeficiency virus type 1 group M subtype B, UniProt P04585); experiment: RESTRICT assay with TFV-DP in buffer at different dNTP concentrations; assay type: biochemical; settings: 100, 300, 1560, 6250 nM dNTP, fixed 50 to 1 dNTP to template
T1 construct: Recombinant reverse transcriptase protein obtained through the NIH AIDS Reagent Program; purchased NIH AIDS Reagent Program, Division of AIDS, NIAID, NIH
Experimental: Optimal assay conditions were determined for RT activity in order to minimize assay time and reagent concentration, using RT enzyme obtained through the NIH AIDS Reagent Program, Division of AIDS, NIAID, NIH (Le Grice, S. F. J.; et al., Purification and Characterization of Human Immunodeficiency Virus Type 1 Reverse Transcriptase. In Methods in Enzymology; DNA Replication; Academic Press, 1995, 262, 130-144). Reactions were carried out in a buffer containing: 60 mM Tris (77-86-1, Sigma), 30 mM KCl (7447-40-7, Sigma), 8 mM MgCl2 (7786-30-3, Sigma), and 10 mM dithiothreitol (20-265, Sigma) buffered to pH 8.0 using HCl (7647-01-0, Acros Organics).
The DNA template has a 20 nt primer binding site complementary to the M13 phage DNA primer AGAGTTTGATCCTGGCTCAG (Catalog, Integrated DNA Technologies, Coralville, Iowa), set forth herein as SEQ ID NO:1, followed by TTCA repeats with a total template length of 200 nt. The DNA template was designed using NUPACK software (Zadeh, J. N. et al., NUPACK: Analysis and Design of Nucleic Acid Systems. J. Comput. Chem. 2011, 32 (1), 170-173) to preferentially include T bases because TFV-DP is a deoxyadenosine triphosphate (dATP) analog and thus will bind to T's in the DNA template. […]
Fluorescence from RESTRICT assay data was normalized to allow comparison of data points gathered at different dNTP concentrations as follows, […]

HIV-1 RT [3] = biological target: T1, HIV-1 RT; experiment: RESTRICT assay with TFV-DP spiked in diluted whole blood (0.25% final); assay type: biochemical; settings: 0.25% blood, 100 nM dNTP, N = 4
Experimental: [sequence] assays were conducted with TFV-DP (166403-66-3, BOC Sciences Inc.) using 5 μL of DNA template, 5 μL of primer, 20 μL of dNTPs solution, 5 μL of TFV-DP, and 5 μL of HIV-1 RT. […] Serial dilutions of TFV-DP in buffer spanning a concentration range of 1-10,000 nM were prepared to span two orders of magnitude above and below the clinically relevant range for adherence measurement as described in pharmacokinetic studies. […] [sequence] assay optimization experiments were completed at 100, 300, 1560, and 6250 nM dNTP concentration.
Fluorescence from [sequence] assay data was normalized to allow comparison of data points gathered at different dNTP concentrations as follows,
HIV-negative, human whole blood (BioIVT, Westbury, N.Y.) was diluted in nuclease-free water (3098, Sigma) to lyse RBCs and reduce unwanted inhibition of RT activity by blood components such as immunoglobulins. Blood was mixed with the water by vortexing and incubating for 5 minutes to lyse RBCs.
Five μL of TFV-DP were spiked in 2% blood to 35 μL of master mix so that the final concentration of blood in the [sequence] assay was 0.25%. […]

HIV-1 RT [4] = biological target: T1, HIV-1 RT; experiment: RESTRICT assay on whole blood of study participants (clinical samples); assay type: biochemical
Source text: The RESTRICT assay detects TFV-DP drug concentrations based on its mechanism of action on HIV RT. See examples above and Olanrewaju AO, et al. An enzymatic assay for rapid measurement of antiretroviral drug levels. ACS Sens. April 2020. TFV-DP causes chain termination when HIV RT synthesizes viral double stranded DNA (dsDNA). The RESTRICT assay provides all the reagents required for dsDNA synthesis—a DNA template, primers, nucleotides, recombinant HIV RT enzyme, and appropriate buffers—and measures TFV-DP concentrations in a patient's blood using intercalating fluorescence dyes based on the extent of DNA synthesis. At low TFV-DP concentrations, full-length dsDNA is formed and binds to many intercalating dye molecules resulting in high fluorescence. Meanwhile, at high TFV-DP concentrations, DNA chain termination occurs resulting in dsDNA fragments that bind to few intercalating dye molecules resulting in low fluorescence. Thus, the fluorescence readout from the RESTRICT assay was used to estimate TFV-DP concentration in a patient's blood. […]
The RESTRICT assay was completed in 5 simple steps. […] Then 5 μL of 100 nM of HIV-1 RT was added to initiate the assay which was incubated at 37° C. for 30 min in a microplate reader (SpectraMax iD3, Molecular Devices). […]

[5] = in vivo

Structure (SMILES): CC(Cn1cnc2c(N)ncnc21)OCP(=O)(O)OP(=O)(O)OP(=O)(O)O (stereo in doubt) [TFV-DP, tenofovir diphosphate]
- Median TFV-DP concentrations in RBCs ([1]; depending on adherence, LC/MS): 15-170 fmol/10^6 RBCs
- accumulation in red blood cells (RBCs) ([1]; in vivo): 25 fold
- half-life ([1]; red blood cells): 408 h
- IC50 of inhibition curve as dNTP concentration increases (HIV-1 RT [2]): shift right, towards higher IC50 values
- Normalized fluorescence (%) (HIV-1 RT [3]; TFV-DP 85.4 nM (16.9 fmol/10^6 RBCs, low adherence, 1 dose per week)): 89.0%
- Normalized fluorescence (%) (HIV-1 RT [3]; TFV-DP 768 nM (152.3 fmol/10^6 RBCs, high adherence, 7 doses per week)): 57.5%
- Median fluorescence, RESTRICT assay (HIV-1 RT [4]; samples containing <700 fmol/punch TFV-DP (N=14)): 51.3%
- Median fluorescence, RESTRICT assay (HIV-1 RT [4]; samples containing ≥700 fmol/punch TFV-DP (N=4)): 31.9%
- clinical range for TFV-DP adherence, concentration in whole blood [5]: 75 to 850 nM

Structure (SMILES): C[C@H](Cn1cnc2c(N)ncnc21)OCP(=O)(O)O [TFV, tenofovir]
- half-life ([1]; plasma): 15 h and 17 h
- detectable for up to ([1]; urine): ≤ 7 days
